Counter-ions that a name gives are not always drawn.
Columns and labels:
αvβ1 = αvβ1 (Homo sapiens, UniProt P05556+P06756); experiment: Solid Phase Integrin αvβ1 Assay; type: binding
Procedure, shortened: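 Wells coated with 1 µg/mL recombinant TGFb1-LAP and blocked with 2% BSA/TBST, 1 mM MnCl2; αvβ1 (added at 0.2 µg/mL) and compound incubated 90 min at room temperature. Bound integrin detected by streptavidin-HRP (20 min) and TMB after Mn-containing washes; IC50 by four-parameter logistic fit.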

αvβ6 = αvβ6 (Homo sapiens, UniProt P06756+P18564); experiment: Solid Phase Integrin αvβ6 Assay; type: binding
Procedure, shortened: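 Plates coated with 1 μg/mL recombinant TGFb1-LAP; compounds and αvβ6 (0.2 μg/mL diluted stock) incubated 1 h at room temperature in 2% BSA/TBST with 1 mM MnCl2. Bound integrin detected with streptavidin-HRP and TMB; IC50 from four-parameter logistic fits.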

αvβ6, sequence (P06756 31-992 limits assumed): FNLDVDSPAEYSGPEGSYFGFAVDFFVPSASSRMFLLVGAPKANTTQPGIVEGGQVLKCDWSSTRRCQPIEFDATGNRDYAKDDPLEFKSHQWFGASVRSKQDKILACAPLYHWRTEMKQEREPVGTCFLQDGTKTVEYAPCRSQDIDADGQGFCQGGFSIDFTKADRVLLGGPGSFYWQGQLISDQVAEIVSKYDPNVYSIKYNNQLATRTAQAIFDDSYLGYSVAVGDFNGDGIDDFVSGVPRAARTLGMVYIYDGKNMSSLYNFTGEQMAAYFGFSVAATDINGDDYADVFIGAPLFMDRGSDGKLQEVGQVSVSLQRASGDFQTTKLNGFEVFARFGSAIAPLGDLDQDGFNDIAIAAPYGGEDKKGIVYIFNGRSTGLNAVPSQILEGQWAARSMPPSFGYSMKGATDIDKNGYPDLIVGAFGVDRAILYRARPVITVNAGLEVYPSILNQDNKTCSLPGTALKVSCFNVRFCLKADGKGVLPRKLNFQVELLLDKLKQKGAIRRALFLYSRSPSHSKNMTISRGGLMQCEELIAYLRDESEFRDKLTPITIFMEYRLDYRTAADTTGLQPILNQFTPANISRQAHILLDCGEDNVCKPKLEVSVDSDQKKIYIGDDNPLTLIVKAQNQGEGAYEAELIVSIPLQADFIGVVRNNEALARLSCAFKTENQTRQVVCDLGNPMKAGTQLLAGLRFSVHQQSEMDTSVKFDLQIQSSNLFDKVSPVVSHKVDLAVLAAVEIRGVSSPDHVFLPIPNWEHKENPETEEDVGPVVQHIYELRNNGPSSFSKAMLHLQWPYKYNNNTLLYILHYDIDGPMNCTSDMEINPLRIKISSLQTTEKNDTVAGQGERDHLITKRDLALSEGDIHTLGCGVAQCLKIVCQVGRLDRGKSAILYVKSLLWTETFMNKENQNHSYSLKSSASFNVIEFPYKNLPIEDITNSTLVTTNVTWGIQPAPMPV
αvβ6, sequence (P18564 22-707 limits assumed): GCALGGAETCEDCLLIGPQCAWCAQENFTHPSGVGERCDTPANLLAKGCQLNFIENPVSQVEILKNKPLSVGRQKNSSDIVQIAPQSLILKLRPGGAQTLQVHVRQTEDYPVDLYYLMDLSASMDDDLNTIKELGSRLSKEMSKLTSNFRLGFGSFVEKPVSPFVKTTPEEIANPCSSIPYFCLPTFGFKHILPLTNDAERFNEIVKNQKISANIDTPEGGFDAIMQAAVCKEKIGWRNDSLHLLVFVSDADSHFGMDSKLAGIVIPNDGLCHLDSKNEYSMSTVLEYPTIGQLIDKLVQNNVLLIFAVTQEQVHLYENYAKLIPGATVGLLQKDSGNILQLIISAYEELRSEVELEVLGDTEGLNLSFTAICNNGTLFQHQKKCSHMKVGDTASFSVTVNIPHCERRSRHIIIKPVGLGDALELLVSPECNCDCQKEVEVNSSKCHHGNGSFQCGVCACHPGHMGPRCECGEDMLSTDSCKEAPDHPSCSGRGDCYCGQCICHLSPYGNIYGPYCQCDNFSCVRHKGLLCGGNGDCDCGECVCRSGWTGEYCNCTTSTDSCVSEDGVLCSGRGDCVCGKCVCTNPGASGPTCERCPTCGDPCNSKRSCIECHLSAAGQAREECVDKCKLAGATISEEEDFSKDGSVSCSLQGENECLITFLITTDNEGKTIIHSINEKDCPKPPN
αvβ1, sequence (P06756 31-992 limits assumed): as the sequence (P06756 31-992 limits assumed) above
αvβ1, sequence (P05556 21-728 limits assumed): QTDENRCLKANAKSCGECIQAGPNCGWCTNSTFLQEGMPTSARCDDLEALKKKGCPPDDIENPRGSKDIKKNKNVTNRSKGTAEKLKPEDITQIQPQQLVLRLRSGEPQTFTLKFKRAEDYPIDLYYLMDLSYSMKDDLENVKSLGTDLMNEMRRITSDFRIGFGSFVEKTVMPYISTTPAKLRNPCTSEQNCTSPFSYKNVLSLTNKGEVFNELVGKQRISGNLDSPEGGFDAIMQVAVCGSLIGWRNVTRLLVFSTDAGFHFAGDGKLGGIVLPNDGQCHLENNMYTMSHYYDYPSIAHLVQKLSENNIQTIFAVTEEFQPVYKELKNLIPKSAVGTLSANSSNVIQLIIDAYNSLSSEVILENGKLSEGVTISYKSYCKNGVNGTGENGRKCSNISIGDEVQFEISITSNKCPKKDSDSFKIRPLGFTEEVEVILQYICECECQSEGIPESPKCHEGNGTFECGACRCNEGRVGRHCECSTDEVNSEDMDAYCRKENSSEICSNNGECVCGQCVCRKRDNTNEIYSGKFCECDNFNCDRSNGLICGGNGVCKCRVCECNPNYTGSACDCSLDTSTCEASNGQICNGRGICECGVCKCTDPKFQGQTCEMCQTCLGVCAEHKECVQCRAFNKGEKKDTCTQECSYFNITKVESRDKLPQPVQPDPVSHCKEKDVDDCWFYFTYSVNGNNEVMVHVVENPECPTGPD

SMILES	IC50 (αvβ1)	IC50 (αvβ6)
O=C(O)C[C@H](CO[C@@H]1CCCN(CCCc2ccc3c(n2)NCCC3)C1)c1ccccc1-c1ccccc1 [Compound 460]	> 1000 nM	> 1000 nM
O=C(O)C[C@H](O[C@@H]1CCCN(CCCCc2ccc3c(n2)NCCC3)C1)c1ccccc1 [Compound 393]	> 1000 nM	> 1000 nM
O=C(O)CC(CC(=O)N[C@@H]1CCN(C(=O)CCCc2ccc3c(n2)NCCC3)C1)c1ccccc1 (some centres unmarked) [Compound 524]	< 100 nM	100 to 1000 nM
O=C(O)CC(CO[C@@H]1CCCN(CCCc2ccc3c(n2)NCCC3)C1)c1ccccc1 (stereo partly drawn) [Compound 297, 3-phenyl-4-(((R)-1-(3-(5,6,7,8-tetrahydro-1,8-naphthyridin-2-yl)propyl)piperidin-3-yl)oxy)butanoic acid hydrochloride]	< 100 nM	< 100 nM
O=C(O)C[C@@H](CO[C@@H]1CCCN(CCCc2ccc3c(n2)NCCC3)C1)c1ccc(-c2ccccc2)cc1 [Compound 459]	> 1000 nM	100 to 1000 nM
O=C(CC[C@H](NC(=O)[C@H]1CCCN1S(=O)(=O)c1ccccc1)C(=O)O)N[C@H]1CCN(C(=O)CCCc2ccc3c(n2)NCCC3)C1 [Compound 438]	< 100 nM	< 100 nM
C[C@H]1C[C@H](C(=O)NC[C@@H](C(=O)O)c2ccc3ccccc3c2)CN(CCCc2ccc3c(n2)NCCC3)C1 [Compound 643]	< 100 nM	< 100 nM
O=C(CC[C@H](C(=O)O)c1ccccc1)N[C@@H]1CCN(C(=O)CCCc2ccc3c(n2)NCCC3)C1 [Compound 418]	> 1000 nM	> 1000 nM
O=C(O)C[C@H](CC(=O)N[C@H]1CCN(C(=O)CCCc2ccc3c(n2)NCCC3)C1)c1ccccc1 [Compound 522]	< 100 nM	100 to 1000 nM

Second part, the compound after the results:

IC50 (αvβ1)	IC50 (αvβ6)	SMILES
< 100 nM	< 100 nM	CC1(C(=O)N[C@@H](CNC(=O)[C@@H]2CCCN(CCCc3ccc4c(n3)NCCC4)C2)C(=O)O)CCCCC1 [Compound 263, (S)-2-(1-methylcyclohexane-1-carboxamido)-3-((R)-1-(3-(5,6,7,8-tetrahydro-1,8-naphthyridin-2-yl)propyl)piperidine-3-carboxamido)propanoic acid hydrochloride]
< 100 nM	< 100 nM	O=C(NC[C@H](NS(=O)(=O)C1CCCCC1)C(=O)O)[C@@H]1CCCN(CCCc2ccc3c(n2)NCCC3)C1 [Compound 274, (S)-2-(cyclohexanesulfonamido)-3-((R)-1-(3-(5,6,7,8-tetrahydro-1,8-naphthyridin-2-yl)propyl)piperidine-3-carboxamido)propanoic acid hydrochloride]
> 1000 nM	> 1000 nM	O=C(O)[C@H](c1ccccc1)[C@@H](O)CO[C@@H]1CCCN(CCCc2ccc3c(n2)NCCC3)C1 [Compound 612]
< 100 nM	< 100 nM	O=C(N[C@@H](CNC(=O)[C@@H]1CCCN(CCCc2ccc3c(n2)NCCC3)C1)C(=O)O)c1ccc(F)c(Cl)c1 [Compound 367]
< 100 nM	< 100 nM	O=C(O)CC(NC(=O)[C@@H]1CCCN(CCCc2ccc3c(n2)NCCC3)C1)c1cccc2c1CCO2 (stereo partly drawn) [Compound 219, 3-(2,3-dihydrobenzofuran-4-yl)-3-((R)-1-(3-(5,6,7,8-tetrahydro-1,8-naphthyridin-2-yl)propyl)piperidine-3-carboxamido)propanoic acid hydrochloride]
< 100 nM	< 100 nM	Cc1csc2ncnc(N[C@@H](CNC(=O)[C@@H]3CCCN(CCCc4ccc5c(n4)NCCC5)C3)C(=O)O)c12 [Compound 280, (S)-2-((5-methylthieno[2,3-d]pyrimidin-4-yl)amino)-3-((R)-1-(3-(5,6,7,8-tetrahydro-1,8-naphthyridin-2-yl)propyl)piperidine-3-carboxamido)propanoic acid]
< 100 nM	< 100 nM	O=C(O)C[C@@H](CO[C@@H]1CCCN(CCCc2ccc3c(n2)NCCC3)C1)c1ccnc(C2CC2)c1 [Compound 514]

From patent publication US20240208968A1, “ALPHA V BETA 6 AND ALPHA V BETA 1 INTEGRIN INHIBITORS AND USES THEREOF” (DiCE Molecules SV, Inc., priority 2021, published 2024)
